Three substances from EP0302407A2, “Metallic complexes of streptogramin-B, their preparation and their use in animal food” (HOECHST AKTIENGESELLSCHAFT, priority 1987, dated 1989) can be followed below.

Holding throughout (assay type): in vivo
Series [1] deals with männlichen Mastküken. Put plainly: Feeding trial with broiler chicks, Beispiel IV (5 weeks). As to conditions: for Mortalität: 50400 min. The text has this:
(§1) Der Versuch lief über 6 Wochen. Futter und Trinkwasser wurden nach Belieben angeboten. Die Tiere wurden wöchentlich einzeln gewogen, die Lebendmasse(LM)-Zunahmen errechnet, die Futteraufnahme bestimmt und aus Futteraufnahme : LM-Zunahme der Futteraufwand errechnet. Die Mortalität wurde erfaßt und aus all diesen Parametern die Produktionszahl (PZ) errechnet. [formula]
Mit 96 männlichen Mastküken wurde in 3 Gruppen zu je 32 Mastküken (4 Wiederholungen x 8 Tiere) über 5 Wochen der Einfluß des Etamycin-Mn-Komplexes gemäß Beispiel 10 in Dosierungen von 5 und 10 ppm im Vergleich zu einer Negativ-Kontrolle (ohne Zusatz) geprüft. Die Haltungs- und Fütterungsbedingungen sowie die Auswertung waren die gleichen wie in Beispiel I.

Series [2] has as its system männlichen Mastküken (Lohmann). Put plainly: Feeding trial with broiler chicks, Beispiel II (42 days).
From the text: as §1
In einem Mastküken-Versuch über 42 Tage wurde mit 144 männlichen Mastküken (Lohmann) 3 x 48 Küken (8 Wiederholungen x 6 Tiere) der Einfluß von Etamycin-Cu-Komplex gemäß Beispiel I in Dosierungen von 5 und 10 ppm gegenüber Negativ-Kontrollen ohne Zusatz geprüft. Haltung und Fütterung waren die gleichen wie in Beispiel I.

For series [3], the system named is männlichen Mastküken. Put plainly: Feeding trial with broiler chicks, Beispiel I (6 weeks). As to conditions: for Mortalität: 60480 min.
From the text: Ein Fütterungsversuch mit Etamycin-Cu-Komplex gemäß Herstellungsbeispiel 2 wurde mit 120 männlichen Mastküken in 3 Gruppen zu je 40 Küken durchgeführt, die in beheizten Batterien (5 Küken bei 8 Wiederholungen) gehalten wurden. Folgende Präparate und Dosierungen wurden eingesetzt:
Das Grundfutter hatte eine handelsübliche Zusammensetzung mit 13,0 MJ/kg = 3100 kcal/kg und einem Rohproteingehalt von 22 %, bei einem normgerechten Aminosäuren-, Vitamin-, Mineralstoff- und Spurenelementgehalt.
as §1

The subject of series [4] is Mastküken. Description: Feeding trial with broiler chicks, Beispiel III (6 weeks). As to conditions: 10 mg/kg Futter (ppm).
From the text: as §1
In einem weiteren Mastküken-Versuch wurde der Einfluß von Etamycin-Zn-Komplex gemäß Beispiel 4 in einer Dosierung von 10 ppm im Vergleich zu einer Negativ-Kontrolle wie im Beispiel I geprüft. Zum Einsatz kamen 36 Mastküken (6 Wiederholungen x 6 Tiere), bei einer Versuchszeit von 6 Wochen. Haltungs- und Fütterungsbedingungen waren die gleichen wie im Beispiel I.

The mark [5] stands for this setting: 5 mg/kg Futter (ppm), Futteraufnahme : LM-Zunahme.
The mark [6] stands for this setting: 5 mg/kg Futter (ppm), control = 100.
The mark [7] stands for this setting: 10 mg/kg Futter (ppm), Futteraufnahme : LM-Zunahme.
[8] abbreviates: 10 mg/kg Futter (ppm), control = 100.
Where [9] appears, read: 20 mg/kg Futter (ppm), control = 100.

Marks after values point to notes of the source that are not given here.

On to “Etamycin-Mangan (II)-komplex Et₂ x Mn(II) [Etamycin-Mn-Komplex]”, for which the Futteraufnahme is on record as 2334 g in series [1] (5 mg/kg Futter (ppm)), 100 rel.% in series [1] (setting [6]), 2413 g in series [1] (10 mg/kg Futter (ppm)) and 103,4 rel.% in series [1] (setting [8]). Besides, the LM-Zunahme in series [1] (5 mg/kg Futter (ppm)) is listed as 1394 * g; in series [1] (setting [6]), 106,4 rel.%; in series [1] (10 mg/kg Futter (ppm)), 1419 * g; in series [1] (setting [8]), 108,3 rel.%. For the same substance, the Produktionszahl in series [1] (5 mg/kg Futter (ppm)) and in series [1] (10 mg/kg Futter (ppm)) was 222 each time. For the same substance, the Mortalität in series [1] (5 mg/kg Futter (ppm)) and in series [1] (10 mg/kg Futter (ppm)) was 0% in each case. Moreover, the Futteraufwand was 1,67 in series [1] (setting [5]), 93,8 rel. % in series [1] (setting [6]), 1,70 in series [1] (setting [7]) and 95,5 rel. % in series [1] (setting [8]).
Take “Etamycin-Kupfer-(II)-komplex (Et₂ x Cu(II)) [Etamycin-Cu-Komplex]”: the Futteraufnahme is on record as 3260 g in series [2] (5 mg/kg Futter (ppm)); 106,3 rel.% in series [2] (setting [6]); 3099 g in series [2] (10 mg/kg Futter (ppm)); 101,0 rel.% in series [2] (setting [8]); 2561 g in series [3] (5 mg/kg Futter (ppm)); 101,2 rel.% in series [3] (setting [6]). The Futteraufnahme was 2644 g in series [3] (20 mg/kg Futter (ppm)) and 104,5 rel.% in series [3] (setting [9]). Also, the LM-Zunahme in series [2] (5 mg/kg Futter (ppm)) is 1699 * g; in series [2] (setting [6]), 109,0 rel.%; in series [2] (10 mg/kg Futter (ppm)), 1673 * g; in series [2] (setting [8]), 107,3 rel.%; in series [3] (5 mg/kg Futter (ppm)), 1439 * g; in series [3] (setting [6]) it was 109,0 rel.%. In addition, the values for the LM-Zunahme in series [3] (20 mg/kg Futter (ppm)) and in series [3] (setting [9]) were 1442 * g and 109.2 rel.%, respectively. Further, the Mortalität in series [2] (5 mg/kg Futter (ppm)) is 2,1%; in series [2] (10 mg/kg Futter (ppm)), 6,3%; in series [3] (5 mg/kg Futter (ppm)), 20%; in series [3] (20 mg/kg Futter (ppm)), 7,5%. For the same substance, the Produktionszahl is listed as 207 in series [2] (5 mg/kg Futter (ppm)), 202 in series [2] (10 mg/kg Futter (ppm)), 154 in series [3] (5 mg/kg Futter (ppm)) and 173 in series [3] (20 mg/kg Futter (ppm)). For the same substance, the Futteraufwand in series [2] (setting [5]) is 1,92; in series [2] (setting [6]), 97,5 rel. %; in series [2] (setting [7]) it was 1,85; in series [2] (setting [8]), 93,9 rel. %; in series [3] (setting [5]) it was 1,78; in series [3] (setting [6]), 92,7 rel. %. The Futteraufwand in series [3] (20 mg/kg Futter (ppm), Futteraufnahme : LM-Zunahme) is on record as 1,83; in series [3] (setting [9]), 95,3 rel. %.
For the substance “Etamycin-Zn(II)-komplex (Et₂ x Zn(II)) [Etamycin-Zn-Komplex]”, in series [4], the Futteraufnahme is 3041 g, the LM-Zunahme is 1748 * g and the Produktionszahl was found to be 228. Also, the Mortalität in series [4] (60480 min) is on record as 5,6%. For the same substance, the Futteraufwand in series [4] (Futteraufnahme : LM-Zunahme) is 1,74. Further, in series [4] (control = 100), the Futteraufnahme is 102,5 rel.%, the Futteraufwand is reported as 93,5 rel. % and the LM-Zunahme is 109,4 rel.%.
